Data from patent US20150368242A1, “NOVEL TETRAHYDROPYRIDOPYRIMIDINONE DERIVATIVE” (Ajinomoto Co., Inc., priority 2013, published 2015).
Counter-ions that a name gives are not always drawn. Like-named read-outs stand apart in the source and are kept apart here.

Target: T1, recombinant human MGAT2 enzyme (Homo sapiens, UniProt Q3SYC2)
T1 construct: made in house; host or cells: CHO-K1 (Jump-In CHO-K1 Kit, Life Technologies); microsomal fraction used as the enzyme solution
Assay: Test for human MGAT2 activity inhibitory action (14C-oleoyl CoA, recombinant enzyme microsomes)
Format: biochemical
Design: key to Potency relative to Comparative Example 1 (higher = more potent): % inhibition = {1−(C−B)/(A−B)}×100, B = 10 μM Comparative Example 1
Details: for IC50: read-out: IC50
Protocol: The human MGAT2 gene described in Am. J. Physiol. Endocrinol. Metab. 285: E927-E937, 2003 was expressed using Jump-In™ CHO-K1 Kit (Life technologies) as described in the attached manual. The cells were suspended in a buffer containing Tris-hydrochloric acid (pH 7.4) at a final concentration of 1 mM, 1 mM ethylenediaminetetraacetic acid, 1 mM dithiothreitol, 250 mM sucrose, and complete protease inhibitor cocktail (Roche applied Science), and then disrupted using a Teflon homogenizer (AS ONE Corporation), followed by centrifugation at 130 g for 10 minutes. The supernatant was further centrifuged at 100,000 g for 1 hour to obtain a pellet as microsomes containing the recombinant enzyme, and a solution obtained by suspending this pellet at a protein concentration of about 800 to 1900 μg/ml was used as an MGAT recombinant enzyme solution.
To a buffer containing 50 mM Tris-hydrochloric acid (pH 7.4), 6 mM magnesium chloride, and 2 mg/mL bovine serum albumin, a test compound was added, and the final concentration of dimethyl sulfoxide was adjusted to 0.3%. Moreover, 2-monooleoyl glycerol, oleoyl CoA, 1-^14C-oleoyl CoA (Perkin Elmer), and orlistat (SIGMA) were added at final concentrations of 50 μM, 50 μM, 2.2 μM, and 8.3 μM, respectively, followed by incubation at 37° C. for 10 minutes. After 10 minutes, the recombinant human MGAT2 enzyme solution was added at a final concentration of 0.67 μg/mL, and the reaction was started, with the amount of the reaction solution being 150 μl. The reaction was carried out at 37° C. for 30 minutes.
After 30 minutes, the reaction was stopped by adding 300 μl of isopropanol:heptane:water=(80:20:2) to the reaction liquid. Further, 200 μl of heptane and 100 μl of water were added, followed by stirring. Then, 100 μl of the upper layer was transferred to a 96-well plate (Corning), and mixed with 100 μl of liquid scintillator (LumaSafe Plus, Lumac). Then, the ^14C count was quantitatively determined using TopCount NXT™ microplate scintillation luminescence counter (Perkin Elmer).
The ^14C count in a case where no test compound was added was defined as A, the ^14C count in a case where 10 μM of the compound (Comparative Example 1) of Example No. 8 of WO2008/038768 was added was defined as B, and the ^14C count in the case where the test compound was added was taken as C. For this case, {1−(C−B)/(A−B)}×100(%) was calculated as the human MGAT2 activity inhibition ratio of the test compound (shown in the column named vs Comp. Ex. 1 in the following Table). A greater value of the “vs Comparative Example 1” means that the MGAT2 activity inhibitory action of the compound of Example was higher as compared to the MGAT2 activity inhibitory action of the compound of Comparative Example 1 (i.e., the human MGAT2 activity inhibition ratio was higher). […] Since this evaluation test was conducted for two separate groups, the test results of the two groups are shown separately in Table (First Test) and Table 4 (Second Test).
Next, the compounds of Examples 25 to 60 of the present invention were also investigated for their pharmacological action by using the same method as in Examples 1 to 24. […] Note that, a comparative evaluation test against the compound of Comparative Example 1 was conducted for each of the compounds of Examples (in every measurement of the inhibitory activity of the compounds of Examples 25 to 60, the inhibitory activity of the compound of Comparative Example 1 was measured). The 50% inhibition concentrations of Comparative Example 1 in the measurement of the inhibitory activities of the compounds of Examples 25 to 60 were shown in Table 5 as “IC50 (nM) of Comparative Example 1.”

[1] = First Test (Table 3), relative to Comparative Example 1, greater value = higher inhibitory action
[2] = Second Test (Table 4), relative to Comparative Example 1

T1 sequence (Q3SYC2 whole entry): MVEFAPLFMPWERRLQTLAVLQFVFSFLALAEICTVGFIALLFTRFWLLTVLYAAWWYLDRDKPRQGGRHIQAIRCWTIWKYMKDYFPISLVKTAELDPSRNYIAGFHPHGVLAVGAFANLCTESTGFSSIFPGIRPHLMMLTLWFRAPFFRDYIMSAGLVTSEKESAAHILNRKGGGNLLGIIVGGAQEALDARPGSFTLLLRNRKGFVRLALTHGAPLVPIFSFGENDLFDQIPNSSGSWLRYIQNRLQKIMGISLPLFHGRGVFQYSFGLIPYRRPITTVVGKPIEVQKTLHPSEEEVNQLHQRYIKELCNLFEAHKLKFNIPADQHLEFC

Row | SMILES | IC50 (First Test (Table 3)) | Potency relative to Comparative Example 1 (higher = more potent) [1] | IC50 (Second Test (Table 4)) | Potency relative to Comparative Example 1 (higher = more potent) [2]
1 | O=C(CNCc1ccc(C(F)(F)F)cc1)N1CCc2nc(SC3CCC3)n(-c3ccccc3)c(=O)c2C1 [Example 1, 2-cyclobutylsulfanyl-3-phenyl-6-[2-[[4-(trifluoromethyl)phenyl]methylamino]acetyl]-7,8-dihydro-5H-pyrido[4,3-d]pyrimidin-4-one trifluoroacetate] | 4.1 nM | 54 |  | 
2 | O=C(CNCCCc1ccccc1)N1CCc2nc(SC3CCC3)n(-c3ccccc3)c(=O)c2C1 [Example 2, 2-cyclobutylsulfanyl-3-phenyl-6-[2-(3-phenylpropylamino)acetyl]-7,8-dihydro-5H-pyrido[4,3-d]pyrimidin-4-one trifluoroacetate] | 1.3 nM | 171 |  | 
3 | O=C(CNCc1ccc(Cl)cc1)N1CCc2nc(SC3CCC3)n(-c3ccccc3)c(=O)c2C1 [Example 3, 6-[2-[(4-chlorophenyl)methylamino]acetyl]-2-cyclobutylsulfanyl-3-phenyl-7,8-dihydro-5H-pyrido[4,3-d]pyrimidin-4-one trifluoroacetate] | 3.7 nM | 60 |  | 
4 | O=C(CNCc1cccc(Cl)c1)N1CCc2nc(SC3CCC3)n(-c3ccccc3)c(=O)c2C1 [Example 4, 6-[2-[(3-chlorophenyl)methylamino]acetyl]-2-cyclobutylsulfanyl-3-phenyl-7,8-dihydro-5H-pyrido 4,3-[d]pyrimidin-4-one trifluoroacetate] | 2.9 nM | 77 |  | 
5 | O=C(CNCc1ccc(OCc2ccc(C(F)(F)F)cc2)cc1)N1CCc2nc(SC3CCC3)n(-c3ccccc3)c(=O)c2C1 [Example 6, 2-cyclobutylsulfanyl-3-phenyl-6-[2-[[4-[[4-(trifluoromethyl)phenyl]methoxy]phenyl]methylamino]acetyl]-7,8-dihydro-5H-pyrido[4,3-d]pyrimidin-4-one hydrate trifluoroacetate] | 1.6 nM | 144 |  | 
6 | O=C(CNCc1ccc(COc2ccccc2)cc1)N1CCc2nc(SC3CCC3)n(-c3ccccc3)c(=O)c2C1 [Example 7, 2-cyclobutylsulfanyl-6-[2-[[4-(phenoxymethyl)phenyl]methylamino]acetyl]-3-phenyl-7,8-dihydro-5H-pyrido[4,3-d]pyrimidin-4-one trifluoroacetate] | 2.3 nM | 75 |  | 
7 | O=C(CNCCc1ccccc1)N1CCc2nc(SC3CCC3)n(-c3ccccc3)c(=O)c2C1 [Example 8, 2-cyclobutylsulfanyl-6-[2-(phenylethylamino)acetyl]-3-phenyl-7,8-dihydro-5H-pyrido[4,3-d]pyrimidin-4-one trifluoroacetate] | 3.5 nM | 63 |  | 
8 | O=C(CNCCOc1ccc(F)c(F)c1)N1CCc2nc(SC3CCC3)n(-c3ccccc3)c(=O)c2C1 [Example 9, 2-cyclobutylsulfanyl-6-[2-[2-(3,4-difluorophenoxy)ethylamino]acetyl]-3-phenyl-7,8-dihydro-5H-pyrido[4,3-d]pyrimidin-4-one trifluoroacetate] | 3.9 nM | 57 |  | 
9 | O=C(CCNCc1ccccc1)N1CCc2nc(SC3CCC3)n(-c3ccccc3)c(=O)c2C1 [Example 10, 6-[3-(benzylamino)propanoyl]-2-cyclobutylsulfanyl-3-phenyl-7,8-dihydro-5H-pyrido[4,3-d]pyrimidin-4-one trifluoroacetate] | 0.82 nM | 273 |  | 
10 | [2H]c1c([2H])c([2H])c(-n2c(SC3CCC3)nc3c(c2=O)CN(C(=O)CCNCc2ccccc2)CC3)c([2H])c1[2H] [Example 11, 6-[3-(benzylamino)propanoyl]-2-cyclobutylsulfanyl-3-(2,3,4,5,6-pentadeuteriophenyl)-7,8-dihydro-5H-pyrido[4,3-d]pyrimidin-4-one trifluoroacetate] |  |  | 1.8 nM | 166
11 | O=C(CCNCc1ccccc1)N1CCc2nc(SC3CCC3)n(CC3CCC3)c(=O)c2C1 [Example 12, 6-[3-(benzylamino)propanoyl]-3-(cyclobutylmethyl)-2-cyclobutylsulfanyl-7,8-dihydro-4H-pyrido[4,3-d]pyrimidin-4-one trifluoroacetate] |  |  | 1.4 nM | 216
12 | O=C(CCNCc1ccccc1)N1CCc2nc(SC3CCC3)n(C[C@H]3CCCO3)c(=O)c2C1 [Example 13, 6-[3-(benzylamino)propanoyl]-2-cyclobutylsulfanyl-3-[[(2R)-tetrahydrofuran-2-yl]methyl]-7,8-dihydro-5H-pyrido[4,3-d]pyrimidin-4-one trifluoroacetate] |  |  | 6.9 nM | 44
13 | O=C(CCNCc1ccccc1)N1CCc2nc(SC3CCC3)n(Cc3ccco3)c(=O)c2C1 [Example 14, 6-[3-(benzylamino)propanoyl]-2-cyclobutylsulfanyl-3-(2-furylmethyl)-7,8-dihydro-5H-pyrido[4,3-d]pyrimidin-4-one trifluoroacetate] |  |  | 4.7 nM | 65
14 | O=C(CCNCc1ccccc1)N1CCc2nc(SC3CCC3)n(C3CCCC3)c(=O)c2C1 [Example 15, 6-[3-(benzylamino)propanoyl]-2-cyclobutylsulfanyl-3-cyclopentyl-7,8-dihydro-5H-pyrido[4,3-d]pyrimidin-4-one trifluoroacetate] |  |  | 2.4 nM | 129
15 | O=C(CCNCc1ccsc1)N1CCc2nc(SC3CCC3)n(-c3ccccc3)c(=O)c2C1 [Example 16, 2-cyclobutylsulfanyl-3-phenyl-6-[3-(3-thienylmeethylamino)propanoyl]-7,8-dihydro-5H-pyrido[4,3-d]pyrimidin-4-one trifluoroacetate] |  |  | 1.8 nM | 173
16 | COc1ccccc1CNCCC(=O)N1CCc2nc(SC3CCC3)n(-c3ccccc3)c(=O)c2C1 [Example 17, 2-cyclobutylsulfanyl-6-[3-[(2-methoxyphenyl)methylamino]propanoyl]-3-phenyl-7,8-dihydro-5H-pyrido[4,3-d]pyrimidin-4-one trifluoroacetate] |  |  | 2.1 nM | 148
17 | O=C(CCNCc1ccccc1F)N1CCc2nc(SC3CCC3)n(-c3ccccc3)c(=O)c2C1 [Example 18, 2-cyclobutylsulfanyl-6-[3-[(2-fluorophenyl)methylammino]propanoyl]-3-phenyl-7,8-dihydro-5H-pyrido[4,3-d]pyrimidin-4-one trifluoroacetate] |  |  | 2.3 nM | 134
18 | O=C(CCNCc1ccc(C(F)(F)F)cc1)N1CCc2nc(SC3CCC3)n(-c3ccccc3)c(=O)c2C1 [Example 19, 2-cyclobutylsulfanyl-3-phenyl-6-[3-[[4-(trifluoromethyl)phenyl]methylamino]propanoyl]-7,8-dihydro-5H-pyrido[4,3-d]pyrimidin-4-one trifluoroacetate] |  |  | 0.9 nM | 352
19 | O=C(CCNCc1csc2ccccc12)N1CCc2nc(SC3CCC3)n(-c3ccccc3)c(=O)c2C1 [Example 20, 6-[3-(benzothiophen-3-ylmethylamino)propanoyl]-2-cyclobutylsulfanyl-3-phenyl-7,8-dihydro-5H-pyrido[4,3-d]pyrimidin-4-one trifluoroacetate] |  |  | 1 nM | 300
